Source: ChEMBL document CHEMBL1125004, “Chemistry and pharmacology of the non-benzodiazepine anxiolytic enciprazine and related compounds” (1990)

Key:
[1] = Ratio of ED50 (rotarod) to that of ED50 (fighting); format: functional
[2] = Ratio of ED50 (hexobarbital) to that of ED50 (fighting); format: functional
Mus musculus [3] = species: Mus musculus; test: Ataxic activity in mice by rotarod test; Range (87.7-114.6); format: functional
Mus musculus [4] = test: Antiaggressive anxiolytic activity in the electroshock-induced fighting test in mice (po); Range (1.46-5.72); format: functional
Rattus norvegicus = test: Antiaggressive anxiolytic activity in the hexagonal maze test in rat after po administration of 2.6 mg/kg; format: functional
Mus musculus [5] = species: Mus musculus; test: Effect on hexobarbital induced sleep was determined in hexobarbital potentiation test; Range (181.4-219.9); format: functional
Mus musculus [6] = test: Antiaggressive anxiolytic activity in the electroshock-induced fighting test in mice (po); Range (8.3-16.1); format: functional
Mus musculus [7] = test: Antiaggressive anxiolytic activity in the electroshock-induced fighting test in mice (po); Range (13.27-18.96); format: functional
Mus musculus [8] = test: Antiaggressive anxiolytic activity in the electroshock-induced fighting test in mice (po); Range (1.19-5.72); format: functional
Mus musculus [9] = test: Antiaggressive anxiolytic activity in the electroshock-induced fighting test in mice (po); Range (11.7-20.3); format: functional
Mus musculus [10] = species: Mus musculus; test: Ataxic activity in mice by rotarod test; Range (231.4-298.5); format: functional
Mus musculus [11] = test: Antiaggressive anxiolytic activity in the electroshock-induced fighting test in mice (po); Range (0.69-2.88); format: functional
Mus musculus [12] = species: Mus musculus; test: Effect on hexobarbital induced sleep was determined in hexobarbital potentiation test; Range (1 19.4-168.3); format: functional
Mus musculus [13] = test: Antiaggressive anxiolytic activity in the electroshock-induced fighting test in mice (po); Range (1 7.3-25.4); format: functional
Mus musculus [14] = test: Antiaggressive anxiolytic activity in the electroshock-induced fighting test in mice (po); Range (9.4-17.88); format: functional
Mus musculus [15] = test: Antiaggressive anxiolytic activity in the electroshock-induced fighting test in mice (po); Range (3.1-7.7); format: functional
Mus musculus [16] = species: Mus musculus; test: Ataxic activity in mice by rotarod test; Range (355.1-460.2); format: functional
Mus musculus [17] = test: Antiaggressive anxiolytic activity in the electroshock-induced fighting test in mice (po); Range (7.3-11.9); format: functional
Mus musculus [18] = test: Effect on hexobarbital induced sleep was determined in hexobarbital potentiation test (po); Range (76.3-106.2); format: functional
Monkey [19] = test: Tested for ability to maintain self-administration after administration of 0.3 mg/kg in monkey 9079 (56.5+/-18.0); format: functional, Cercopithecidae
Monkey [20] = test: Tested for ability to maintain self-administration after administration of 0.3 mg/kg in monkey 3017 (76.6+/-15.9); format: functional, Cercopithecidae
Monkey [21] = test: Tested for ability to maintain self-administration after administration of 0.1 mg/kg in monkey 9083 (59.8+/-15.8); format: functional, Cercopithecidae
Monkey [22] = test: Tested for ability to maintain self-administration after administration of 0.3 mg/kg in monkey 2036 (44.9 +/-5.6); format: functional, Cercopithecidae
Monkey [23] = test: Tested for ability to maintain self-administration after administration of 0.3 mg/kg in monkey 3038 (53.9+/-9.3); format: functional, Cercopithecidae
Monkey [24] = test: Tested for ability to maintain self-administration after administration of 0.3 mg/kg in monkey 2037 (60.1+/-5.3); format: functional, Cercopithecidae
Mus musculus [25] = species: Mus musculus; test: Effect on hexobarbital induced sleep was determined in hexobarbital potentiation test; Range (8.3-15.4); format: functional
Mus musculus [26] = species: Mus musculus; test: Ataxic activity in mice by rotarod test; Range (1.1-5.3); format: functional
Mus musculus [27] = test: Antiaggressive anxiolytic activity in the electroshock-induced fighting test in mice (po); Range (6.62-10.07); format: functional

COc1cc(OCC(O)CN2CCN(c3ccccc3NC(C)=O)CC2)cc(OC)c1OC (centres undefined) showed a Therapeutic index [1] of 30, a Therapeutic index [2] of 61 and an ED50 (Mus musculus [3]) of 100 mg/kg. It also gave an ED50 (Mus musculus [4]) of 3.3 mg/kg, a Prolongation (Rattus norvegicus) of 50% and an ED50 (Mus musculus [5]) of 200 mg/kg.

For COc1cc(OCC(O)CN2CCN(c3cccc(C)c3)CC2)cc(OC)c1OC.Cl (centres undefined), the ED50 (Mus musculus [6]) was 12 mg/kg.

In the case of COc1ccccc1N1CCN(CC(COc2cc(OC)c(OC)c(OC)c2)OC(=O)c2cc(OC)c(OC)c(OC)c2)CC1.Cl (centres undefined), the ED50 (Mus musculus [7]) is reported as 16 mg/kg.

COc1cc(OCC(O)CN2CCN(c3ccccc3OC(C)=O)CC2)cc(OC)c1OC.Cl (centres undefined) gave an ED50 (Mus musculus [8]) of 3.3 mg/kg.

For COc1cc(OCC(O)CN2CCN(c3ccccc3Cl)CC2)cc(OC)c1OC.Cl (centres undefined), the ED50 (Mus musculus [9]) was 16 mg/kg.

Work on COc1cc(OCC(O)CN2CCN(c3ccccc3N)CC2)cc(OC)c1OC.Cl (centres undefined) yielded a Therapeutic index [1] of 185, a Therapeutic index [2] of 103 and an ED50 (Mus musculus [10]) of 260 mg/kg. It also gave an ED50 (Mus musculus [11]) of 1.4 mg/kg and an ED50 (Mus musculus [12]) of 145 mg/kg.

In the case of COc1cc(OCC(O)CN2CCN(c3ccccc3C(F)(F)F)CC2)cc(OC)c1OC.Cl (centres undefined), the ED50 (Mus musculus [13]) is reported as 21 mg/kg.

Work on COc1ccccc1N1CCN(CC(COc2cc(OC)c(OC)c(OC)c2)OC(=O)c2cccnc2)CC1.Cl (centres undefined) yielded an ED50 (Mus musculus [14]) of 14 mg/kg.

In the case of COc1cccc(N2CCN(CC(O)COc3cc(OC)c(OC)c(OC)c3)CC2)c1.Cl (centres undefined), the ED50 (Mus musculus [15]) is reported as 5.5 mg/kg.

For COc1cc(OCC(O)CN2CCN(c3cccc(C(F)(F)F)c3)CC2)cc(OC)c1OC.Cl (centres undefined), the Therapeutic index [1] was 44, the Therapeutic index [2] was 10 and the ED50 (Mus musculus [16]) was 400 mg/kg. It also gave an ED50 (Mus musculus [17]) of 9 mg/kg and an ED50 (Mus musculus [18]) of 90 mg/kg.

With CCCC(C)C1(CC)C(=O)NC(=O)NC1=O (centres undefined) [PENTOBARBITAL] the Effect (Monkey [19]) was 56.5, the Effect (Monkey [20]) was 76.6 and the Effect (Monkey [21]) was 59.8. The Effect (Monkey [22]) was 44.9, the Effect (Monkey [23]) was 53.9 and the Effect (Monkey [24]) was 60.1.

O=C1CN=C(c2ccccc2)c2cc(Cl)ccc2N1CC1CC1 [PRAZEPAM] gave a Therapeutic index [1] of 0.4, an ED50 (Mus musculus [25]) of 11.5 mg/kg and an ED50 (Mus musculus [26]) of 3.1 mg/kg. The ED50 (Mus musculus [27]) was 8 mg/kg and the Therapeutic index [2] was 1.4.
